Target: T1, endogenous renin from human plasma (Homo sapiens, UniProt P00797)
T1 construct: rate of formation of angiotensin I from endogenous angiotensinogen and renin; from tissue; host or cells: pooled human plasma (EDTA)
T1 sequence (P00797 67-406): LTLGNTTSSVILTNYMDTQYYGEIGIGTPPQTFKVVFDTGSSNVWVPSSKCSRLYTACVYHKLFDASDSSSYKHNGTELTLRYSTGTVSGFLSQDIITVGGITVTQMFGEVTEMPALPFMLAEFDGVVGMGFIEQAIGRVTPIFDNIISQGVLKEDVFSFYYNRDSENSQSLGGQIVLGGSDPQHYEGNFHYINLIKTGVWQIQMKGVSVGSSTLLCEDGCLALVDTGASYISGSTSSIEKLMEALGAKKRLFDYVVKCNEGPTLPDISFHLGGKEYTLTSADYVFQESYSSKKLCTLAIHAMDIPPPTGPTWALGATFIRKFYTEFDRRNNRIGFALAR
Assay: In vitro test: inhibition of plasma renin activity (angiotensin I formation, radioimmunoassay)
Assay type: biochemical
Conditions: pooled human plasma, 37° C., pH 5.6
Procedure: The plasma renin activity (PRA) is determined by incubation at 37° C. as the rate of formation of angiotensin I from endogenous angiotensinogen and renin. […] The angiotensin I formed per unit of time is determined by radioimmunoassay (Sorin Biomedica, Italy).
The percentage inhibition of the plasma renin activity is calculated by comparison […].

Row | Compound | Inhibition at 0.05 mg/ml [%]
1 | CC(C)(C)OC(=O)N(Cc1ccccc1)CC(O)C(Cc1ccccc1)C(=O)N[C@H](Cc1cnc[nH]1)C(=O)N[C@H](Cc1ccccc1)C(=O)O (stereo partly drawn) [Example 76, 4-(N-tert.-Butoxycarbonyl-N-benzyl)amino-2-R,S-benzyl-3-R,S-hydroxybutyryl-D-histidyl-D-phenylalanine] | 78%
2 | CC(C)(C)OC(=O)N(Cc1ccccc1)CC(O)C(Cc1ccccc1)C(=O)N[C@H](Cc1c[nH]cn1)C(=O)O (stereo partly drawn) [Example 74, 4-(N-tert.-Butoxycarbonyl-N-benzyl)amino-2-R,S-benzyl-3-R,S-hydroxybutyryl-D-histidine] | 93%
3 | CC(C)(C)OC(=O)N(Cc1ccccc1)C[C@H](O)[C@@H](Cc1ccccc1)C(=O)N[C@H](Cc1c[nH]cn1)C(=O)N[C@H](Cc1ccccc1)C(=O)N1CCOCC1 [Example 77, 4-(N-tert.-Butoxycarbonyl-N-benzyl)amino-2-R,S-benzyl-3-R,S-hydroxybutyryl-D-histidyl-D-phenylalanine-(N-morpholino)amide] | 100%
4 | CC(C)CNC(=O)[C@@H](Cc1ccccc1)NC(=O)[C@@H](Cc1c[nH]cn1)NC(=O)[C@H](Cc1ccccc1)[C@@H](O)CNC(=O)OC(C)(C)C [Example 78, (N-tert.-Butoxycarbonyl)amino-2-R,S-benzyl-3-R,S-hydroxybutyryl-D-histidyl-D-phenylalanine-(2-methylpropyl)amide] | 100%

Now from value to compound:

Row | Inhibition at 0.05 mg/ml [%] | Compound
5 | 100% | O=C(N[C@H](Cc1cnc[nH]1)C(=O)N[C@H](Cc1ccccc1)C(=O)OCc1ccccc1)C(Cc1ccccc1)C(O)CN1C(=O)c2ccccc2C1=O (stereo partly drawn) [Example 70, 4-(N-Phthalyl)amino-2-R,S-benzyl-3R,S-hydroxybutyryl-D-histidyl-D-phenylalanine benzyl ester]
6 | 92% | O=C(O)[C@@H](Cc1ccccc1)NC(=O)[C@@H](Cc1c[nH]cn1)NC(=O)[C@H](Cc1ccccc1)[C@@H](O)CN1C(=O)c2ccccc2C1=O [Example 71, 4-(N-Phthalyl)amino-2-R,S-benzyl-3R,S-hydroxybutyryl-D-histidyl-D-phenylalanine]
7 | 88% | COC(=O)[C@@H](Cc1ccccc1)NC(=O)[C@@H](Cc1cnc[nH]1)NC(=O)C(Cc1ccccc1)C(O)CN(Cc1ccccc1)C(=O)Cc1cccnc1 (stereo partly drawn) [Example 103, 4-[N-Benzyl-N-(3-pyridyl)acetyl]amino-2-R,S-benzyl-3-R,S-hydroxybutyryl-D-histidyl-D-phenylalanine methyl ester]
8 | 100% | O=C(NC1CCCC1)[C@@H](Cc1ccccc1)NC(=O)[C@@H](Cc1c[nH]cn1)NC(=O)[C@H](Cc1ccccc1)[C@@H](O)CN1C(=O)c2ccccc2C1=O [Example 72, 4-(N-Phthalyl)amino-2-R,S-benzyl-3R,S-hydroxybutyryl-D-histidyl-D-phenylalanine(cyclopentyl)amide]
9 | 63% | CC(C)CNC(=O)[C@@H](Cc1ccccc1)NC(=O)[C@@H](Cc1cnc[nH]1)NC(=O)C(Cc1ccccc1)C(O)CNC(=O)c1ccccc1C(=O)O (stereo partly drawn) [Example 90, 4-[N-(2-Carboxy)benzoyl]amino-2-R,S-benzyl-3-R,S-hydroxybutyryl-D-histidyl-D-phenylalanine-(2-methyl) propylamide]
